For data set [1] the following is noted: cited from earlier work.
The nature of data set [2]: Minutes to complete bubbling / softening of finishes (Example 5). The method, then:
A 50 mole percent mixture of diacetone alcohol as the first chemical and Panasol AN-1 as the second chemical was compared against pure diacetone alcohol on a variety of surfaces.
Latex enamel was also tested.

A short description of data set [3]: Deglosser test: adhesion of latex enamel to wiped alkyd enamel (Example 6). The conditions noted are these: after wiping off cooking oil with saturated paper towel, painting and drying. The method, then: The mixture of Example 5 and straight diacetone alcohol were tested as deglossers, wherein an alkyd surface was covered with cooking oil. Then a paper towel saturated with the liquid was used to wipe off both the oil and the surface sheen of the alkyd enamel. This was followed by painting with latex enamel. […] Said commercially available deglossers contained such chemicals as methylene chloride, alcohols, and petroleum distillates.

The nature of data set [4]: Paint stripping, xylene and diacetone alcohol mixture (Example 7). The text has this:
A 50 mole percent mixture of xylene and diacetone alcohol was compared against the pure components on a number of substrates for use as paint strippers. […] On an alkyd sash and trim paint the xylene was ineffective.

For data set [5] the following is noted: 75° F.; cited from earlier work.
Data set [6] is described as follows: Paint removal comparison of NMP/Panasol AN-1 mixtures with the pure components (Example 1). The method, then: Various mixtures of Panasol AN-1 and NMP were compared against the paint removal efficiency of the pure components. The following surfaces were tested: alkyd enamel, polyurethane varnish, two-part epoxy enamel, polyurethane marine enamel, latex enamel, and a surface with seven layers of aged alkyd enamels.
The straight line drawn at a 45° angle represents the expected effectiveness, based on the state of the art with an averaging of the properties of the pure components (R. S. Downing, ibid.).

Data set [7] is described as follows: Paint removal, NMP and benzyl alcohol (Example 9). As to conditions: alone. The text has this: However, its mixture with NMP had substantially less effectiveness than either pure component.
The nature of data set [8]: Paint removal, N-vinyl 2-pyrrolidone mixtures and pyrrolidone 2 (Example 4). As to conditions: variety of surfaces, as in Example 1. The procedure:
N-vinyl 2-pyrrolidone was substituted for NMP in the mixtures prepared in Example 1. They were tested as a paint remover on a variety of surfaces, also as in Example 1.

Like-named read-outs stand apart in the source and are kept apart here.

For the compound `CC(C)=O` [Acetone], the “toxicity / health effects in words” value in data set [1] (background literature) is “low toxicity”.
On to `CC(=O)CC(C)(C)O` [Diacetone Alcohol, diacetone alcohol], for which the “Minutes to Complete Bubbling” value came out at 32 min in data set [2] (Acrylic enamel), 40 min in data set [2] (Alkyd enamel), 36 min in data set [2] (Polyurethane varnish) and 17 min in data set [2] (polyurethane enamel). For the same compound, the time to softening in data set [2] (Latex enamel (does not bubble)) amounted to 4 min. Further, the softening and bubbling result in data set [2] (alkyd and epoxy surfaces) was “would soften alkyd and epoxy surfaces, permitting scraping but would not bubble them in a reasonable time”. The “adhesion of the latex enamel to the alkyd enamel” value in data set [3] is given as “excellent”. In addition, the paint stripping effectiveness result is reported as “effective but very slow” in data set [4] (alkyd sash and trim paint); “equally effective” in data set [4] (brushing lacquer).
For `CO` [Methanol], the elimination entry in data set [1] (Sax, Dangerous Properties of Industrial Materials) is “slowness with which it is eliminated”. For the same compound, the “toxicity / health effects in words” value is “prolongs the period of cardiovascular stress caused by the methylene chloride” in data set [1] (background literature); “Severe exposures may cause dizziness, unconsciousness, sighing respiration, cardiac depression and eventually death” in data set [1] (background literature, listed as methanol).
As to `ClCCl` [Methylene chloride], in data set [5], the vapor pressure is 400 mm Hg. Further, the metabolism result in data set [1] (background literature) is “metabolized to carbon monoxide”.
In the case of `CN1CCCC1=O` [NMP, n-methyl 2 pyrrolidone], the removal time entry in data set [6] (epoxy) was “ten”; in data set [6] (polyurethane enamel) it was 5 min. In addition, the paint removal effectiveness result is “equally effective” in data set [6] (old lead based paint) and “would not succumb to NMP” in data set [6] (one surface with a modern coating).
With `c1ccccc1` [benzene], in data set [1] (background literature), the “toxicity / health effects in words” value is “induces severe chronic toxic effects, causing anemia and damaging the bone marrow”.
Turning to `OCc1ccccc1` [benzyl alcohol], in data set [7], the paint removal ability result is “some ability to soften paint and remove it”.
For `O=C1CCCN1` [pyrrolidone 2], in data set [8], the paint removal effectiveness entry is recorded as “ineffective as a paint remover”.
Regarding xylene, the paint stripping effectiveness entry is on record as “ineffective” in data set [4] (alkyd sash and trim paint); “ineffective” in data set [4] (brushing lacquer); “very slow acting” in data set [4] (latex flat paint).

(Values after patent publication US4120810A, “Paint remover with improved safety characteristics” (priority 1976, dated 1978).)
